Laboratory results published in US4472392A, “Sulfonate containing ester prodrugs of corticosteroids” (The Upjohn Company, priority 1983, dated 1984).
Where a name gives a salt, the structure may show the parent alone.

Columns and labels:
[1] = M. Kawamura et al., Yakugaku Zasshi, 91, 871 (1971); cited from earlier work
[2] = Base catalyzed hydrolysis rate in concentrated versus dilute solution; format: physicochemical; details: 0.11M solution versus 5×10^-4 M solution
Text: The actual shelf-life of formulations of the above compounds would be expected to differ from the above estimates for two reasons: (1) The solubility of the parent corticosteroid formed on hydrolysis may be exceeded prior to 10% degradation of the ester. Micelle formation by the intact prodrugs of Formula I results in solubilization of free corticosteroid thereby prolonging shelf-life. […]. The degree of solubilization varies with the ester concentration, nature of the pro-moiety, and the structure of the corticosteroid. (2) Micelle formation by the intact prodrug in concentrated solutions results in stabilization of the ester linkage toward base catalyzed hydrolysis. For example, the base catalyzed hydrolysis rate in a 0.11M solution of the compound of Example 1 is less than one-half the rate in a 5×10^-4 M solution.

[3] = Estimated t90% (time for 10% hydrolysis) in dilute aqueous solution at 25° C; format: physicochemical; details: extrapolated from rate constants at pH 2 and 8 (0.01 ionic strength buffers) to the pH at which hydrolysis is a minimum
Protocol: The solution stability of the compounds of Formula I varies to some extent depending on the nature of X and Y and the values for m and n. Shown in Table I are estimates of t90% (time for 10% hydrolysis) of various derivatives in dilute aqueous solutions at 25° C. These estimates are based on an extrapolation of the rate constants for acid and base catalyzed hydrolysis to the pH at which hydrolysis is a minimum. The rate constants for acid and base catalyzed hydrolysis were determined at pH 2 and 8, respectively, in 0.01 ionic strength buffers.

C[C@]12CCC(=O)C=C1CC[C@@H]1[C@@H]2[C@@H](O)C[C@@]2(C)[C@H]1CC[C@]2(O)C(=O)COS(=O)(=O)O [21-sulfate of hydrocortisone]
activity in mice [1]: inactive

C[C@H]1C[C@@H]2[C@H]([C@@H](O)C[C@@]3(C)[C@H]2CC[C@]3(O)C(=O)COC(=O)CCC(=O)N(C)CCS(=O)(=O)O)[C@@]2(C)C=CC(=O)C=C12 [Example 1, N-Methyl taurine amide of methylprednisolone 21-hemisuccinate (Na salt)]
base catalyzed hydrolysis rate relative to the rate in dilute solution [2]: less than one-half
Estimated t90% (time for 10% hydrolysis) [3]: 3.9 years

C[C@H]1C[C@@H]2[C@H]([C@@H](O)C[C@@]3(C)[C@H]2CC[C@]3(O)C(=O)COC(=O)CCCCCCC(=O)NCCS(=O)(=O)O)[C@@]2(C)C=CC(=O)C=C12 [Example 2, Taurine amide of methylprednisolone 21-suberate (Na salt)]
Estimated t90% (time for 10% hydrolysis) [3]: 3.9 years

C[C@H]1C[C@@H]2[C@H]([C@@H](O)C[C@@]3(C)[C@H]2CC[C@]3(O)C(=O)COC(=O)CCCCCCC(=O)N(C)CCS(=O)(=O)O)[C@@]2(C)C=CC(=O)C=C12 [Example 3, N-Methyltaurine amide of methylprednisolone 21-hemisuberate (Na salt)]
Estimated t90% (time for 10% hydrolysis) [3]: 4.1 years
